pIC50: −log10 of the molar value.
Target: GPR174-v38 (Homo sapiens, UniProt Q9BXC1)
Experiment: Inhibition of PS-induced GPR174 Gs signaling (GloSensor), HEK293 stably transfected with GPR174-v38
Type: cell-based
Details: PS liposomes 1 μM; for pIC50: GPR174-v38 (compound 59: data not shown), read-out: apparent IC50, inhibition of PS-induced GPR174 Gs signaling

How did the “PS-mediated GPR174 Gs signaling (FIGS. 47B-47F)” value (shortened to “PS-mediated GPR174 Gs signaling”) turn out when `O=C(c1ccccc1)N1CCN(c2cc(N3CCCCC3)c(F)cc2[N+](=O)[O-])CC1` [compound 6] was run?
The value was “inhibited”.

And the pIC50?
The pIC50 was ~7.00.

`O=[N+]([O-])c1cc(F)c(N2CCCCC2)cc1N1CCN(S(=O)(=O)c2ccccc2)CC1` [compound 11] was tested. Which “PS-mediated GPR174 Gs signaling” value did it give?
Its value is “inhibited”.

What about the pIC50 of the same molecule?
Its pIC50 is ~7.00.

How did the “PS-mediated GPR174 Gs signaling” value turn out when `Cc1ccccc1Nc1nnc(-c2ccc(C)c(S(N)(=O)=O)c2)c2ccccc12` [compound 20] was run?
Its value is “inhibited”.

And the pIC50?
The pIC50 was ~5.52.

Which results are given for `CCOc1ccc(C2C3=C(CCCC3=O)NC3=C2C(=O)c2ccccc23)cc1` (centres unmarked) [compound 23]?
PS-mediated GPR174 Gs signaling (FIGS. 47B-47F): inhibited; pIC50: ~6.82

With `CCOc1ccc(C2C3=C(CCCC3=O)NC3=C2C(=O)c2ccccc23)cc1OCC` (centres unmarked) [compound 30] as the molecule, how does the “PS-mediated GPR174 Gs signaling” value read?
Its value is “inhibited”.

And the pIC50?
The pIC50 was ~5.89.

With `S=C(NCc1ccco1)Nc1ccc(I)cc1` [compound 59] as the molecule, how does the pIC50 read?
Its pIC50 is ~5.00.

From US20200345725A1, “Methods and Compositions for Treating Cancer” (Omeros Corporation, priority 2019, published 2020)
